The series relates to CCRIS mutagenicity, Ames/micronucleus/aberration tests. In words: CCRIS mutagenicity studies.
[1] abbreviates: Test System: AMES SALMONELLA TYPHIMURIUM, Strain/Indicator: TA98, Metabolic Activation: NONE, Method: STANDARD PLATE.
The mark [2] stands for this setting: Test System: AMES SALMONELLA TYPHIMURIUM, Strain/Indicator: TA98, Metabolic Activation: RAT, LIVER, S-9, AROCLOR 1254, Method: STANDARD PLATE.
[3] abbreviates: Test System: AMES SALMONELLA TYPHIMURIUM, Strain/Indicator: TA100, Metabolic Activation: NONE, Method: STANDARD PLATE.
[4] abbreviates: Test System: AMES SALMONELLA TYPHIMURIUM, Strain/Indicator: TA100, Metabolic Activation: RAT, LIVER, S-9, AROCLOR 1254, Method: STANDARD PLATE.
The mark [5] stands for this setting: Test System: AMES SALMONELLA TYPHIMURIUM, Strain/Indicator: TA1535, Metabolic Activation: NONE, Method: STANDARD PLATE.
The mark [6] stands for this setting: Test System: AMES SALMONELLA TYPHIMURIUM, Strain/Indicator: TA1535, Metabolic Activation: RAT, LIVER, S-9, AROCLOR 1254, Method: STANDARD PLATE.
[7] abbreviates: Test System: AMES SALMONELLA TYPHIMURIUM, Strain/Indicator: TA1537, Metabolic Activation: NONE, Method: STANDARD PLATE.
Where [8] appears, read: Test System: AMES SALMONELLA TYPHIMURIUM, Strain/Indicator: TA1537, Metabolic Activation: RAT, LIVER, S-9, AROCLOR 1254, Method: STANDARD PLATE.
Where [9] appears, read: Test System: AMES SALMONELLA TYPHIMURIUM, Strain/Indicator: TA1538, Metabolic Activation: NONE, Method: STANDARD PLATE.
[10] abbreviates: Test System: AMES SALMONELLA TYPHIMURIUM, Strain/Indicator: TA1538, Metabolic Activation: RAT, LIVER, S-9, AROCLOR 1254, Method: STANDARD PLATE.
Setting [11] is: Test System: AMES SALMONELLA TYPHIMURIUM, Strain/Indicator: TA98, Metabolic Activation: NONE, Method: PREINCUBATION
[12] abbreviates: Test System: AMES SALMONELLA TYPHIMURIUM, Strain/Indicator: TA100, Metabolic Activation: NONE, Method: PREINCUBATION

Structures are written as SMILES. The source made the active and inactive calls. No rule for the calls is given here.

With `Nc1cc2c(O)c(N=Nc3ccc(N=Nc4ccc(S(=O)(=O)O)cc4)c4ccc(S(=O)O)cc34)c(S(=O)(=O)O)cc2cc1S(=O)(=O)O`, the mutagenic call is “inactive; negative” under setting [1]; “inactive; negative” under setting [2]; “inactive; negative” under setting [3]; “inactive; negative” under setting [4]; “inactive; negative” under setting [5]; “inactive; negative” under setting [6]. Further, the mutagenic call by setting is: under setting [7], “inactive; negative”; under setting [8], “inactive; negative”; under setting [9], “inactive; negative”; under setting [10], “inactive; negative”.
In the case of `O=S(=O)(O)c1ccc(N=Nc2cc(S(=O)(=O)O)c3ccccc3c2O)c2ccccc12`, the mutagenic call by setting is: (End Point: IN VITRO CHROMOSOMAL ABERRATIONS, Test System: CHO CELLS, Metabolic Activation: NONE) “inactive; negative”; (End Point: IN VITRO CHROMOSOMAL ABERRATIONS, Test System: CHO CELLS, Metabolic Activation: RAT, LIVER, S-9, AROCLOR 1254) “inactive; negative”; (Test System: Mouse lymphoma, Strain/Indicator: L5178Y (tk+/tk-), Metabolic Activation: None, Method: Suspension/plate) “inactive; negative”; (Test System: Mouse lymphoma, Strain/Indicator: L5178Y (tk+/tk-), Metabolic Activation: Rat, Liver, S-9, Aroclor 1254, Method: Suspension/plate) “inactive; negative”.
Take `O=C1c2ccccc2-c2c3c(cc4ccnc1c24)OCO3`: the mutagenic call reads like this: under setting [11], “inactive; negative”; (Test System: AMES SALMONELLA TYPHIMURIUM, Strain/Indicator: TA98, Metabolic Activation: RAT, LIVER, S-9, PHENOBARBITAL AND BETA-NAPHTHOFLAVONE, Method: PREINCUBATION) “active; positive”; under setting [12], “inactive; negative”; (Test System: AMES SALMONELLA TYPHIMURIUM, Strain/Indicator: TA100, Metabolic Activation: RAT, LIVER, S-9, PHENOBARBITAL AND BETA-NAPHTHOFLAVONE, Method: PREINCUBATION) “active; positive”.
As for `O=C(/C=C/c1ccc(O)c(O)c1)O[C@@H]1C[C@](O)(C(=O)O)C[C@@H](O)[C@H]1O`, the mutagenic call was “inactive; negative” (Test System: AMES SALMONELLA TYPHIMURIUM, Strain/Indicator: TA98, Metabolic Activation: HAMSTER, LIVER, S-9, AROCLOR 1254, Method: STANDARD PLATE); “inactive; negative” under setting [1]; “inactive; negative” under setting [2]; “inactive; negative” (Test System: AMES SALMONELLA TYPHIMURIUM, Strain/Indicator: TA100, Metabolic Activation: HAMSTER, LIVER, S-9, AROCLOR 1254, Method: STANDARD PLATE); “inactive; negative” under setting [3]; “inactive; negative” under setting [4]. In addition, the mutagenic call was “inactive; negative” (Test System: AMES SALMONELLA TYPHIMURIUM, Strain/Indicator: TA1535, Metabolic Activation: HAMSTER, LIVER, S-9, AROCLOR 1254, Method: STANDARD PLATE); “inactive; negative” under setting [5]; “inactive; negative” under setting [6]; “inactive; negative” (Test System: AMES SALMONELLA TYPHIMURIUM, Strain/Indicator: TA1537, Metabolic Activation: HAMSTER, LIVER, S-9, AROCLOR 1254, Method: STANDARD PLATE); “inactive; negative” under setting [7]; “inactive; negative” under setting [8]. The mutagenic call (Test System: AMES SALMONELLA TYPHIMURIUM, Strain/Indicator: TA1538, Metabolic Activation: HAMSTER, LIVER, S-9, AROCLOR 1254, Method: STANDARD PLATE) is “inactive; negative”; the mutagenic call under setting [9] was “inactive; negative”; the mutagenic call under setting [10] was “inactive; negative”; the mutagenic call (Test System: MOUSE LYMPHOMA, Strain/Indicator: L5178Y (TK+/TK-), Metabolic Activation: NONE, Method: SUSPENSION/PLATE) is “inactive; negative. reevaluation of results: negative”; the mutagenic call (Test System: MOUSE LYMPHOMA, Strain/Indicator: L5178Y (TK+/TK-), Metabolic Activation: RAT, LIVER, S-9, AROCLOR 1254, Method: SUSPENSION/PLATE) is “active; positive. reevaluation of results: positive”.
As for `CCCCCCCCCCCCCCCCCC(N)=O`, the mutagenic call was “inactive; negative” under setting [11]; “inactive; negative” (Test System: AMES SALMONELLA TYPHIMURIUM, Strain/Indicator: TA98, Metabolic Activation: RAT LIVER S-9, PHENOBARBITAL AND BETA-NAPHTHOFLAVONE, Method: PREINCUBATION); “inactive; negative” under setting [12]; “inactive; negative” (Test System: AMES SALMONELLA TYPHIMURIUM, Strain/Indicator: TA100, Metabolic Activation: RAT LIVER S-9, PHENOBARBITAL AND BETA-NAPHTHOFLAVONE, Method: PREINCUBATION); “inactive; negative” (Test System: AMES SALMONELLA TYPHIMURIUM, Strain/Indicator: TA1535, Metabolic Activation: NONE, Method: PREINCUBATION); “inactive; negative” (Test System: AMES SALMONELLA TYPHIMURIUM, Strain/Indicator: TA1535, Metabolic Activation: RAT LIVER S-9, PHENOBARBITAL AND BETA-NAPHTHOFLAVONE, Method: PREINCUBATION). For the same compound, the mutagenic call (Test System: AMES SALMONELLA TYPHIMURIUM, Strain/Indicator: TA1537, Metabolic Activation: NONE, Method: PREINCUBATION) was “inactive; negative”; the mutagenic call (Test System: AMES SALMONELLA TYPHIMURIUM, Strain/Indicator: TA1537, Metabolic Activation: RAT LIVER S-9, PHENOBARBITAL AND BETA-NAPHTHOFLAVONE, Method: PREINCUBATION) is “inactive; negative”; the mutagenic call (Test System: E.COLI, Strain/Indicator: WP2UVRA/PKM101, Metabolic Activation: NONE, Method: PREINCUBATION) is “inactive; negative”; the mutagenic call (Test System: E.COLI, Strain/Indicator: WP2UVRA/PKM101, Metabolic Activation: RAT LIVER S-9, PHENOBARBITAL AND BETA-NAPHTHOFLAVONE, Method: PREINCUBATION) is “inactive; negative”.
For the compound `CC(=O)[C@]1(O)Cc2c(O)c3c(c(O)c2[C@@H](O[C@H]2C[C@H](N)[C@H](O)[C@H](C)O2)C1)C(=O)c1c(O)cccc1C3=O`, the mutagenic call reads like this: (Test System: AMES SALMONELLA TYPHIMURIUM, Strain/Indicator: GW257, Metabolic Activation: NONE, Method: STANDARD PLATE) “active; positive”; (Test System: AMES SALMONELLA TYPHIMURIUM, Strain/Indicator: TA97, Metabolic Activation: NONE, Method: STANDARD PLATE) “active; positive”; under setting [11], “active; positive”; under setting [1], “active; positive”; under setting [2], “active; positive”; under setting [3], “active; positive”. The mutagenic call runs as follows: (Test System: AMES SALMONELLA TYPHIMURIUM, Strain/Indicator: TA104, Metabolic Activation: NONE, Method: STANDARD PLATE) “inactive; negative”; under setting [9], “active; positive”; (Test System: AMES SALMONELLA TYPHIMURIUM, Strain/Indicator: TA2637, Metabolic Activation: NONE, Method: STANDARD PLATE) “active; positive”.

These data come from PubChem BioAssay AID1259407 (Chemical Carcinogenesis Research Information System (CCRIS), 2018).
